Like-named read-outs stand apart in the source and are kept apart here.
Key:
Vero cells = test: Cytotoxicity assay (MTT), Vero cells; format: cell-based, African Green Monkey; conditions: Chlorocebus sabaeus, 72 h, mean ± SD
Procedure: (§1) The MTT colorimetric assay was conducted to assess the cytotoxicity of the compounds according to a method described previously. Briefly, Vero cells or macrophages were cultured in 96-well plates (5 × 10^3 cells/well/200 μL) in RPMI 1640 medium with 10% FBS at 37 °C and under 5% CO2 for 24 h. Thereafter, PBS was used to wash the cells. Then, the compounds in RPMI complete medium with 10% FBS (at varying concentrations of 50, 25, 12.5, 6.25, 3.13, 1.65, 0.75, or 0.37 μg mL^–1) were added to 96-well plates and incubated for 72 h. Cells treated with a medium containing only DMSO (1%) were used as the negative control. After washing, MTT (1 mg mL^–1 in RPMI 1640 medium) was added to each well. The cells were incubated for 4 h, and the supernatant was removed. Next, 150 μL of DMSO was added, and a microplate absorbance spectrophotometer was applied for colorimetric analysis (λ = 540 nm). Cytotoxic effects were expressed by IC50 values (concentration that caused a 50% reduction of viable cells). The experiment was performed in triplicate.

[1] = tested on: T. gondii tachyzoites (RH strain); test: Anti-Toxoplasma activity (infection index in Vero cells, 72 h); format: cell-based, Toxoplasma gondii; conditions: Toxoplasma gondii, Vero, mean ± SD
Procedure: Tachyzoites of the T. gondii RH strain were cultivated in Vero cells according to a published method. Complete RPMI 1640 medium (Invitrogen, USA) with 10% fetal bovine serum (FBS, Invitrogen, USA) was used to culture Vero cells in 96-well plates (5 × 10^3 cells/well in 200 μL of medium), which were incubated at 37 °C and under 5% CO2 for 24 h. This was followed by washing with phosphate-buffered saline (PBS) to remove the medium. Then, RPMI 1640 medium with 2% FBS containing T. gondii tachyzoites (RH strain) at a ratio of 5 (parasite): 1 (Vero cells) was added. After incubation at 37 °C and under 5% CO2 for 5 h, the cells were washed with PBS and overlaid with medium containing one of the tested compounds or atovaquone (ATO) at 50, 25, 12.5, 6.25, 3.13, 1.65, 0.75, or 0.37 μg mL^–1.
After incubation at 37 °C and under 5% CO2 for 72 h, the cells were stained with 1% toluidine before being examined under an inverted photomicroscope (MCD-400, Leica, Japan) to determine the T. gondii infection index (number of infected cells from 200 tested cells). The experiment was performed in triplicate.

macrophages = test: Cytotoxicity assay (MTT), macrophages; format: cell-based, BALB/c mouse; conditions: Mus musculus, Macrophage; 72 h, mean ± SD; read-out: IC50 macro
Procedure: (§2) Female BALB/c mouse peritoneal macrophages (6–8 weeks old) were used to culture L. major amastigotes to assess the activity of the compounds against amastigotes. Briefly, 1 mL of 3% Brewer’s thioglycollate medium/mouse was injected into the peritoneal cavity. After 4 days, the abdominal skin was removed to expose the peritoneal wall. Then, 3 mL of RPMI 1640 medium was injected before cells were collected by aspiration, whereupon 96-well plates containing RPMI 1640 medium with 10% FBS were used to culture 5 × 10^4 cells/well, which were incubated at 37 °C under 5% CO2 for 4 h. After washing with PBS, RPMI 1640 medium containing 5 × 10^5 promastigotes were added to each well. Next, the cells were incubated at 37 °C under humidified 5% CO2 for 24 h to enhance infection and differentiation of amastigotes. Washing with PBS several times removed free promastigotes. Fresh complete RPMI 1640 medium containing one of the tested compounds or AmB at the desired final concentration (50, 25, 12.5, 6.25, 3.13, 1.65, 0.75, or 0.37 μg mL^–1) was added and incubated at 37 °C under a humidified 5% CO2 atmosphere for 72 h. DMSO (1%), only in complete RPMI media, was used as the negative control. The percentage of infected macrophages was assessed microscopically after the medium was removed, followed by washing with PBS, fixation with methanol, and staining with Giemsa. The reading was performed in triplicate. Handling of the laboratory animals followed the instructions and rules of the Committee of Research Ethics, Deanship of Scientific Research, Qassim University, permission number 20–03–20.
as §1

L. major amastigotes = test: Activity against L. major amastigotes in peritoneal macrophages (percentage of infected macrophages, Giemsa, 72 h); format: cell-based, Leishmania major; conditions: intracellular amastigotes, mean ± SD, read-out: EC50 L. major ama
Procedure: (§3) L. major promastigotes were isolated and maintained according to a described method. BALB/c mice were injected at the hind footpads with 1 × 10^6 L. major metacyclic promastigotes. L. major amastigotes were collected from the infected mice. After 8 weeks had elapsed since inoculation, Schneider’s medium (Invitrogen, USA) containing antibiotics and 10% FBS was used to transform isolated amastigotes into promastigotes by incubation at 26 °C. Amastigote-derived promastigotes with less than five in vitro passages were only used for infection.
as §2

L. major promastigotes = test: Activity against L. major promastigotes (MTT, 72 h); format: cell-based, Leishmania major; conditions: mean ± SD, read-out: EC50 L. major prom
Procedure: as §3
To assess the activity of the compounds against L. major promastigotes, 10^6 promastigotes/mL were cultured in 96-well plates in Schneider’s medium with 10% FBS. Then, the compounds or amphotericin B (AmB) were added to obtain the final concentrations (50, 25, 12.5, 6.25, 3.13, 1.65, 0.75, or 0.37 μg mL^–1). Negative control wells contained cultures with DMSO (1%) only. Plates were incubated at 26 °C for 72 h to evaluate the antiproliferative effect. The colorimetric MTT method was used to count viable promastigotes under a microplate absorbance spectrophotometer (xMark, Bio-Rad, USA) at 570 nm. The experiment was performed in triplicate.

[2] = tested on: L. amazonensis promastigotes; set-up: method as in Oliveira and co-workers; conditions: ref Oliveira and co-workers; cited from earlier work

| SMILES | IC50 (Vero cells) | EC50 [1] | IC50 (macrophages) | EC50 (L. major amastigotes; Leishmania major) | EC50 (L. major promastigotes; Leishmania major) | EC50 (L. major amastigotes) | EC50 (L. major promastigotes) | activity against L. amazonensis promastigotes [2] |
| --- | --- | --- | --- | --- | --- | --- | --- | --- |
| CCOC(=O)C1=C(C)NC2=C(C(=O)CC(C)(C)C2)C1c1ccc(OCc2ccccc2)cc1 (racemic) [Compound 4, (±)-ethyl 4-(4-(benzyloxy)phenyl)-2,7,7-trimethyl-5-oxo-1,4,5,6,7,8-hexahydroquinoline-3-carboxylate] | 17.5 ± 3 µM | 3.1 ± 0.4 µM | 25.1 ± 3.7 µM | 23.3 ± 3.4 µM | > 46.7 µM |  |  |  |
| CCOC(=O)C1=C(C)NC2=C(C(=O)CC(C)(C)C2)C1c1ccccc1[N+](=O)[O-] (racemic) [Compound 9, (±)-ethyl 2,7,7-trimethyl-4-(2-nitrophenyl)-5-oxo-1,4,5,6,7,8-hexahydroquinoline-3-carboxylate] | 4.5 ± 0.7 µM | 12 ± 1.9 µM | 12 ± 1.9 µM | 13.7 µM | > 58.2 µM | 10.6 ± 2.1 µM |  |  |
| C[C@@H]1[C@H](O)[C@@H](C)/C=C/C=C/C=C/C=C/C=C/C=C/C=C/[C@H](O[C@@H]2O[C@H](C)[C@@H](O)[C@H](N)[C@@H]2O)C[C@@H]2O[C@](O)(C[C@@H](O)C[C@@H](O)[C@H](O)CC[C@@H](O)C[C@@H](O)CC(=O)O[C@H]1C)C[C@H](O)[C@H]2C(=O)O [AmB, amphotericin B, reference compound] | 10.3 ± 1.2 µM |  |  |  |  |  |  |  |
| CCOC(=O)C1=C(C)NC2=C(C(=O)CC(C)(C)C2)C1c1ccccc1 (centres unmarked) [Compound 1] | > 61.3 µM | > 61.3 µM | > 61.3 µM | > 61.3 µM | > 61.3 µM |  |  |  |
| CCOC(=O)C1=C(C)NC2=C(C(=O)CC(C)(C)C2)C1c1ccc(C)cc1 (centres unmarked) [Compound 2] | 52.9 ± 9.8 µM | > 58.8 µM | 47.8 ± 7.6 µM | > 58.8 µM | > 58.8 µM |  |  |  |
| CCOC(=O)C1=C(C)NC2=C(C(=O)CC(C)(C)C2)C1c1ccc(OC)cc1 (centres unmarked) [Compound 3] | 49.8 ± 8.9 µM | > 56.3 µM | 38.7 ± 6.8 µM | > 56.3 µM | > 56.3 µM |  |  |  |
| CCOC(=O)C1=C(C)NC2=C(C(=O)CC(C)(C)C2)C1c1ccc(N(C)C)cc1 (centres unmarked) [Compound 5] | 49.4 ± 8.8 µM | 29.5 ± 4.1 µM | 49.9 ± 7.4 µM | > 54.4 µM | > 54.4 µM |  |  |  |
| CCOC(=O)C1=C(C)NC2=C(C(=O)CC(C)(C)C2)C1c1ccc(Br)cc1 (centres unmarked) [Compound 6] | 17.4 ± 2.9 µM | 23.4 ± 3.5 µM | 23.4 ± 3.5 µM | > 49.7 µM | > 49.7 µM |  |  |  |
| CCOC(=O)C1=C(C)NC2=C(C(=O)CC(C)(C)C2)C1c1cccc(Cl)c1 (centres unmarked) [Compound 8] | > 55.6 µM | > 55.6 µM | > 55.6 µM | > 55.6 µM | > 55.6 µM |  |  |  |
| CCOC(=O)C1=C(C)NC2=C(C(=O)CC(C)(C)C2)C1c1cccc([N+](=O)[O-])c1 (centres unmarked) [Compound 10] | 10.7 ± 2.1 µM | 16.4 ± 2.5 µM | 24.5 ± 3.6 µM | 26.3 ± 3.7 µM | > 54.1 µM |  |  |  |
| CCOC(=O)C1=C(C)NC2=C(C(=O)CC(C)(C)C2)C1c1ccc(O)c(OC)c1 (centres unmarked) [Compound 11] | 45.1 ± 7.9 µM | 26.5 ± 3.6 µM | 48 ± 8.1 µM | > 54 µM | > 54 µM |  |  |  |
| CCOC(=O)C1=C(C)NC2=C(C(=O)CC(C)(C)C2)C1c1ccc2c(c1)OCO2 (centres unmarked) [Compound 12] | 14.9 ± 2.6 µM | 30.3 ± 5.2 µM | 42.5 ± 7.2 µM | > 60.6 µM | < 50 µM |  | 47.5 ± 6.2 µM | inactive |

From paper PMC12290673, “Antileishmanial and Antitoxoplasmal Activities of 1,4-Dihydropyridines” (ACS Omega, 2025)
